Experimental data taken from patent publication US10934298B2, “Substituted pyrazolo[1,5-a]pyrimidines for the treatment of medical disorders” (BIAL—BioTech Investments, Inc., priority 2016, dated 2021).
Converted amounts (≈) assume the structure as drawn. Where two headings read alike, the source gives them in different places. One block for each molecule: values may come before it.

How the values were obtained:
[1] = Compound solubility in water; format: physicochemical
[2] = target: T1, glucocerebrosidase (Gcase) (Homo sapiens, UniProt P04062); assay: Glucocerebrosidase (Gcase) activation assay with 4-methylumbelliferyl-beta-D-glucopyranoside substrate, saposin C and phosphatidylserine/triton micelles, fluorescence readout; format: biochemical; details: for Percent Gease Activation, 0.1 μM Test Compound / Percent Gease Activation, 1 μM Test Compound: Table 4
T1 construct: micellar solution containing 10 nM GCase and 100 nM saposin C
T1 sequence (P04062 40-536): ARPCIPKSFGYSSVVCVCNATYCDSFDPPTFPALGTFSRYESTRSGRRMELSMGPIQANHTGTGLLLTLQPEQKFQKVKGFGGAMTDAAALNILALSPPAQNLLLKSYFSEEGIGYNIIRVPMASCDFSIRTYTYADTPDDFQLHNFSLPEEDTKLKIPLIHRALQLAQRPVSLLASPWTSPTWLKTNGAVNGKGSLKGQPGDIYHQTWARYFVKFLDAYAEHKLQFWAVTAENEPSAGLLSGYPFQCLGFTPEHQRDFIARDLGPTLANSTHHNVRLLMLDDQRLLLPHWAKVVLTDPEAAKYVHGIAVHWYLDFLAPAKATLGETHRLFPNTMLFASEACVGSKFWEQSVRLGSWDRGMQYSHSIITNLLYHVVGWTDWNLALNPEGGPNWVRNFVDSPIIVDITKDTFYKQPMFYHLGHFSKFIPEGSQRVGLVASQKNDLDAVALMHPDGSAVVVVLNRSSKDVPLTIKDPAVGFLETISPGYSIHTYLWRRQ
How it was run: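 Test compounds are first screened at 1.0 and 0.1 μM final, then titrated in 8 points (3-fold from 5 μM) against human GCase with saposin C in phosphatidylserine/triton X-100 micelles at pH 4.7. Reactions run 15 min at room temperature, with fluorescence read at 365/440 nm.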

Compound Solubility in Water ([1]; Table 4): <1.5 µg/mL
Percent Gease Activation, 0.1 μM Test Compound ([2]; 0.1 μM test compound): * (less than 10% Gcase activation)
Percent Gease Activation, 1 μM Test Compound ([2]; 1 μM test compound): + (less than 30% Gcase activation)
SMILES: Cc1cc(C)n2ncc(C(=O)Nc3ccc(N4CCCCC4)cc3)c2n1 [IV-3]

Compound Solubility in Water [1]: 0.4 µg/mL
Percent Gcase Activation, 0.1 μM Test Compound ([2]; test compound at 0.1 μM): *** (greater than 20% Gcase activation)
Percent Gcase Activation, 1 μM Test Compound ([2]; test compound at 1.0 μM): +++ (Gcase activation greater than 60%)
SMILES: Cc1cc(-c2ccc3ocnc3c2)nc2c(C(=O)NC(C3CC3)C(F)(F)F)cnn12 (stereo not shown) [III-171]

Compound Solubility in Water ([1]; Table 4): <1.5 µg/mL
SMILES: C#Cc1ccc(NC(=O)c2cnn3c(C)cc(C)nc23)cc1 [IV-1]
Percent Gease Activation, 0.1 μM Test Compound ([2]; 0.1 μM test compound): ** (Gcase activation in the range of 10% up to 20%)
Percent Gease Activation, 1 μM Test Compound ([2]; 1 μM test compound): ++ (Gcase activation in the range of 30% up to 60%)

solubility [1]: 0.2 µg/mL (≈ 0.508 µM)
Percent Gcase Activation, 0.1 μM Test Compound ([2]; test compound at 0.1 μM): *** (greater than 20% Gcase activation)
Percent Gcase Activation, 1 μM Test Compound ([2]; test compound at 1.0 μM): +++ (Gcase activation greater than 60%)
SMILES: Cc1cc(-c2cccc(F)n2)nc2c(C(=O)NC(C3CC3)C(F)(F)F)cnn12 (stereo not shown) [III-130]

Percent Gcase Activation, 1 μM Test Compound ([2]; test compound at 1.0 μM): +++ (Gcase activation greater than 60%)
SMILES: Cc1ncc(-c2cc(C)n3ncc(C(=O)NC(C4CC4)C(F)(F)F)c3n2)o1 (stereo not shown) [III-246]
Percent Gcase Activation, 0.1 μM Test Compound ([2]; test compound at 0.1 μM): ** (Gcase activation in the range of 10% up to 20%)

Percent Gcase Activation, 1 μM Test Compound ([2]; test compound at 1.0 μM): +++ (Gcase activation greater than 60%)
SMILES: Cc1cc(N2CCC(F)(F)C2)nc2c(C(=O)NC(C)C(F)(F)F)cnn12 (stereo not shown) [III-180]
Percent Gcase Activation, 0.1 μM Test Compound ([2]; test compound at 0.1 μM): ** (Gcase activation in the range of 10% up to 20%)

Percent Gcase Activation, 0.1 μM Test Compound ([2]; test compound at 0.1 μM): *** (greater than 20% Gcase activation)
Percent Gcase Activation, 1 μM Test Compound ([2]; test compound at 1.0 μM): +++ (Gcase activation greater than 60%)
SMILES: Cc1cc(-c2cncc(Cl)c2)nc2c(C(=O)N[C@H](C)C(F)(F)F)cnn12 [III-201]

Percent Gcase Activation, 0.1 μM Test Compound ([2]; 0.1 μM test compound): *** (greater than 20% Gcase activation)
Percent Gcase Activation, 1 μM Test Compound ([2]; 1 μM test compound): +++ (Gcase activation greater than 60%)
SMILES: Cc1cnc(F)c(-c2cc(C)n3ncc(C(=O)N[C@@H](C4CC4)C(F)(F)F)c3n2)c1 [III-375]

Further lines, the molecule ahead of its results:

SMILES: Cc1cc(-c2ccccn2)nc2c(C(=O)N[C@@H](C)C3CC3)cnn12 [III-24]
solubility ([1]; Table 3A): 8.1 µg/mL (≈ 25.2 µM)
Percent Gcase Activation, 0.1 μM Test Compound ([2]; 0.1 μM test compound, Table 3A): ** (Gcase activation in the range of 10% up to 20%)
Percent Gcase Activation, 1 μM Test Compound ([2]; 1 μM test compound, Table 3A): +++ (Gcase activation greater than 60%)

SMILES: Cc1cc(-c2ccc(Cl)nc2)nc2c(C(=O)N[C@@H](C3CC3)C(F)(F)F)cnn12 [III-118]
solubility [1]: 0.4 µg/mL (≈ 0.976 µM)
Percent Gcase Activation, 0.1 μM Test Compound ([2]; test compound at 0.1 μM): *** (greater than 20% Gcase activation)
Percent Gcase Activation, 1 μM Test Compound ([2]; test compound at 1.0 μM): +++ (Gcase activation greater than 60%)

SMILES: COc1cccc(-c2cc(C)n3ncc(C(=O)NC(C4CC4)C(F)(F)F)c3n2)n1 (stereo not shown) [III-105]
solubility [1]: 0.08 µg/mL (≈ 0.197 µM)
Percent Gcase Activation, 0.1 μM Test Compound ([2]; test compound at 0.1 μM): *** (greater than 20% Gcase activation)
Percent Gcase Activation, 1 μM Test Compound ([2]; test compound at 1.0 μM): +++ (Gcase activation greater than 60%)

SMILES: Cc1cc(-c2cccnc2)nc2c(C(=O)N[C@@H](C)C3CC3)cnn12 [III-26]
solubility ([1]; Table 3A): 26 µg/mL (≈ 80.9 µM)
Percent Gcase Activation, 0.1 μM Test Compound ([2]; 0.1 μM test compound, Table 3A): * (less than 10% Gcase activation)
Percent Gcase Activation, 1 μM Test Compound ([2]; 1 μM test compound, Table 3A): ++ (Gcase activation in the range of 30% up to 60%)

SMILES: Cc1cc(-c2ccncc2)nc2c(C(=O)NC(C)(C)C3CC3)cnn12 [III-20]
Percent Gcase Activation, 0.1 μM Test Compound ([2]; 0.1 μM test compound, Table 3A): * (less than 10% Gcase activation)
Percent Gcase Activation, 1 μM Test Compound ([2]; 1 μM test compound, Table 3A): +++ (Gcase activation greater than 60%)
